Experiments:
Assay in all cases: Post-emergence test experiment (Table 3, 1000 g/ha)
Format in all cases: in vivo
Conditions in all cases: post-emergence spray, after 3 weeks, fresh weight inhibition
Digitaria sanguinalis = test system: Digitaria sanguinalis
Procedure, shortened: (§1)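 Activity graded levels 0-5 by fresh-weight inhibition (level 5 above 85%, level 0 below 5%), assessed 3 weeks after treatment. Plants grown in greenhouse pots were sprayed post-emergence at 2-3 leaves using acetone/tween-80 solutions with methyl oleate synergist (1.5 L/ha).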

Leptochloa chinensis = test system: Leptochloa chinensis
Procedure, shortened: as §1

Monochoria vaginalis = test system: Monochoria vaginalis
Procedure, shortened: as §1

Galium spurium = test system: Galium spurium
Procedure, shortened: as §1

Abutilon theophrasti = test system: Abutilon theophrasti
Procedure, shortened: as §1

Setaria viridis = test system: Setaria viridis
Procedure, shortened: as §1

Row | SMILES | Activity level (growth inhibition rate) Digitaria sanguinalis (Digitaria sanguinalis) | Activity level (growth inhibition rate) Leptochloa chinensis (Leptochloa chinensis) | Activity level (growth inhibition rate) Monochoria Vaginalis (Monochoria vaginalis) | Activity level (growth inhibition rate) Galium spurium (Galium spurium) | Activity level (growth inhibition rate) Abutilon theophrasti (Abutilon theophrasti) | Activity level (growth inhibition rate) Setaria viridis (Setaria viridis)
1 | CC(Oc1nc(F)c(Cl)c(N)c1Cl)C(=O)Sc1cccn1C (stereo not drawn) [Compound 122] | 5 (Level 5: the growth inhibition rate is greater than 85%) | 5 (Level 5: the growth inhibition rate is greater than 85%) | 5 (Level 5: the growth inhibition rate is greater than 85%) | 5 (Level 5: the growth inhibition rate is greater than 85%) | 5 (Level 5: the growth inhibition rate is greater than 85%) | 5 (Level 5: the growth inhibition rate is greater than 85%)
2 | CCCCCCCCSC(=O)C(C)Oc1nc(F)c(Cl)c(N)c1Cl (stereo not drawn) [Compound 73] | 5 (Level 5: the growth inhibition rate is greater than 85%) | 5 (Level 5: the growth inhibition rate is greater than 85%) | 5 (Level 5: the growth inhibition rate is greater than 85%) | 5 (Level 5: the growth inhibition rate is greater than 85%) | 5 (Level 5: the growth inhibition rate is greater than 85%) | 5 (Level 5: the growth inhibition rate is greater than 85%)
3 | CC(Oc1nc(F)c(Cl)c(N)c1Cl)C(=O)Sc1cccnc1 (stereo not drawn) [Compound 115] | 5 (Level 5: the growth inhibition rate is greater than 85%) | 5 (Level 5: the growth inhibition rate is greater than 85%) | 5 (Level 5: the growth inhibition rate is greater than 85%) | 5 (Level 5: the growth inhibition rate is greater than 85%) | 5 (Level 5: the growth inhibition rate is greater than 85%) | 5 (Level 5: the growth inhibition rate is greater than 85%)
4 | CCCCCSC(=O)C(C)Oc1nc(F)c(Cl)c(N)c1Cl (stereo not drawn) [Compound 71] | 5 (Level 5: the growth inhibition rate is greater than 85%) | 5 (Level 5: the growth inhibition rate is greater than 85%) | 5 (Level 5: the growth inhibition rate is greater than 85%) | 5 (Level 5: the growth inhibition rate is greater than 85%) | 5 (Level 5: the growth inhibition rate is greater than 85%) | 5 (Level 5: the growth inhibition rate is greater than 85%)
5 | CSC(=O)C(C)Oc1nc(F)c(Cl)c(N)c1C1CC1 (stereo not drawn) [Compound 22] | 5 (Level 5: the growth inhibition rate is greater than 85%) | 5 (Level 5: the growth inhibition rate is greater than 85%) | 5 (Level 5: the growth inhibition rate is greater than 85%) | 5 (Level 5: the growth inhibition rate is greater than 85%) | 5 (Level 5: the growth inhibition rate is greater than 85%) | 5 (Level 5: the growth inhibition rate is greater than 85%)
6 | Cc1cn(C)nc1SC(=O)C(C)Oc1nc(F)c(Cl)c(N)c1Cl (stereo not drawn) [Compound 119] | 5 (Level 5: the growth inhibition rate is greater than 85%) | 5 (Level 5: the growth inhibition rate is greater than 85%) | 5 (Level 5: the growth inhibition rate is greater than 85%) | 5 (Level 5: the growth inhibition rate is greater than 85%) | 5 (Level 5: the growth inhibition rate is greater than 85%) | 5 (Level 5: the growth inhibition rate is greater than 85%)
7 | CSC(=O)C(C)Oc1nc(F)c(Cl)c(NCc2ccccc2)c1Cl (stereo not drawn) [Compound 132] | 5 (Level 5: the growth inhibition rate is greater than 85%) | 5 (Level 5: the growth inhibition rate is greater than 85%) | 5 (Level 5: the growth inhibition rate is greater than 85%) | 5 (Level 5: the growth inhibition rate is greater than 85%) | 5 (Level 5: the growth inhibition rate is greater than 85%) | 5 (Level 5: the growth inhibition rate is greater than 85%)
8 | CC(Oc1nc(F)c(Cl)c(N)c1Cl)C(=O)Sc1ccn(C)n1 (stereo not drawn) [Compound 118] | 5 (Level 5: the growth inhibition rate is greater than 85%) | 5 (Level 5: the growth inhibition rate is greater than 85%) | 5 (Level 5: the growth inhibition rate is greater than 85%) | 5 (Level 5: the growth inhibition rate is greater than 85%) | 5 (Level 5: the growth inhibition rate is greater than 85%) | 5 (Level 5: the growth inhibition rate is greater than 85%)
9 | CCCSC(=O)C(C)Oc1nc(F)c(Cl)c(N)c1Cl (stereo not drawn) [Compound 67] | 5 (Level 5: the growth inhibition rate is greater than 85%) | 5 (Level 5: the growth inhibition rate is greater than 85%) | 5 (Level 5: the growth inhibition rate is greater than 85%) | 5 (Level 5: the growth inhibition rate is greater than 85%) | 5 (Level 5: the growth inhibition rate is greater than 85%) | 5 (Level 5: the growth inhibition rate is greater than 85%)
10 | CC(C)=NOCCSC(=O)C(C)Oc1nc(C)c(Cl)c(N)c1Cl (stereo not drawn) [Compound 5] | 5 (Level 5: the growth inhibition rate is greater than 85%) | 5 (Level 5: the growth inhibition rate is greater than 85%) | 5 (Level 5: the growth inhibition rate is greater than 85%) | 5 (Level 5: the growth inhibition rate is greater than 85%) | 5 (Level 5: the growth inhibition rate is greater than 85%) | 5 (Level 5: the growth inhibition rate is greater than 85%)
11 | CC(Oc1nc(F)c(Cl)c(N)c1Cl)C(=O)SC(N)=O (stereo not drawn) [Compound 100] | 5 (Level 5: the growth inhibition rate is greater than 85%) | 5 (Level 5: the growth inhibition rate is greater than 85%) | 5 (Level 5: the growth inhibition rate is greater than 85%) | 5 (Level 5: the growth inhibition rate is greater than 85%) | 5 (Level 5: the growth inhibition rate is greater than 85%) | 5 (Level 5: the growth inhibition rate is greater than 85%)

From US12391648B2, “Pyridyloxy thioester derivative and preparation method therefor, herbicidal composition, and application” (Qingdao Kingagroot Chemical Compound Co., Ltd., priority 2018, dated 2025)
